For experiment [1], the target named is T1, Angiotensin II receptor (AT-1) type-1 (Rattus norvegicus, UniProt P29089+P25095).
T1 sequence (P29089 whole entry): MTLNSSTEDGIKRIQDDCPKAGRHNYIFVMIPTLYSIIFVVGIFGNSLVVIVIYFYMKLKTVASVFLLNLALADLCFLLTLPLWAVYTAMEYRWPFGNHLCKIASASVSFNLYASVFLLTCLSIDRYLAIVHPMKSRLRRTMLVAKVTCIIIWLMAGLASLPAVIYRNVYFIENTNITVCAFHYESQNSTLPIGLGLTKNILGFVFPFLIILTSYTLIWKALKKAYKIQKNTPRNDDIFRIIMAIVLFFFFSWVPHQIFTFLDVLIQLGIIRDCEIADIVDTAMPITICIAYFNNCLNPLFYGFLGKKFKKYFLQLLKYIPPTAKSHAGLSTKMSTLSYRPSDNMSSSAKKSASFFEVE
T1 sequence (P25095 whole entry): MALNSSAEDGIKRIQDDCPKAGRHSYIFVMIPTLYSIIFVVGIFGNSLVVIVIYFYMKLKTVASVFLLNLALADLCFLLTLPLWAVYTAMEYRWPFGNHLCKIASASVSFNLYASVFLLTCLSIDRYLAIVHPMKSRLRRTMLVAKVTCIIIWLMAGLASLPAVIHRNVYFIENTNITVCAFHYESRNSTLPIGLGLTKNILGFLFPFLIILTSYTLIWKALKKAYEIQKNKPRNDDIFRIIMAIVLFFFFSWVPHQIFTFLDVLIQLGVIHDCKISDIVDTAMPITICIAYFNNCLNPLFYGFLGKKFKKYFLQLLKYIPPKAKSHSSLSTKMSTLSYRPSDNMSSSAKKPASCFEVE
Kind of experiment: Binding affinity towards Angiotensin II receptor, type 1 in rat liver membrane using [125I]-angiotensin II (0.1 nM). The format is cell membranes.

Another experiment is filed under the species Oryctolagus cuniculus. Kind of experiment: Inhibitory activity against contractile response to angiotensin II (10 nM) of rabbit aortic rings. The format is functional. Conditions: Aorta.

By IC50 is commonly meant the concentration that inhibits the measured activity by half. A high value points to lower potency.

For `CCCCC1=NC2(CCCC2)C(=O)N1Cc1ccc(-c2ccccc2C2=NOC(=O)C2)cc1`, the concentration for half-maximal inhibition (IC50) in experiment [1] was 25 nM; in the experiment filed under Oryctolagus cuniculus, 140 nM.

In the case of `CCCCC1=NC2(CCCC2)C(=O)N1Cc1ccc(-c2ccccc2-c2nnc(O)o2)cc1`, the IC50 is 60 nM in experiment [1] and 67 nM in the experiment listed under Oryctolagus cuniculus.

`CCCCC1=NC(C)(C2CCCCC2)C(=O)N1Cc1ccc(-c2ccccc2-c2n[nH]c(O)n2)cc1` (stereo not drawn) registered a 50% inhibitory concentration (IC50) in experiment [1] of 100 nM.

In experiment [1], `CCCCC1=NC2(CCCC2)C(=O)N1Cc1ccc(-c2ccccc2-c2nc(=O)[nH]o2)cc1` showed an IC50 of 230 nM.

In the case of `CCCCC1=NC2(CCCC2)C(=O)N1Cc1ccc(-c2ccccc2-c2noc(O)n2)cc1`, the IC50 in experiment [1] came to 1.7 nM; in the experiment filed under Oryctolagus cuniculus, 2.6 nM.

For the compound `CCCCC1=NC2(CCCC2)C(=O)N1Cc1ccc(-c2ccccc2-n2oc(=O)[nH]c2=O)cc1`, the IC50 in experiment [1] was 1.4 nM; in the experiment filed under Oryctolagus cuniculus, 2.8 nM.

With `CCCCC1=NC(C)(C2CCCCC2)C(=O)N1Cc1ccc(-c2ccccc2-c2noc(O)n2)cc1` (stereo not drawn), the 50% inhibitory concentration (IC50) amounted to 0.7 nM in experiment [1] and 0.64 nM in the experiment filed under Oryctolagus cuniculus.

`CCCCC1=NC2(CCCC2)C(=O)N1Cc1ccc(-c2ccccc2-c2nnn[nH]2)cc1` [IRBESARTAN]: the IC50 in experiment [1] amounted to 1.3 nM.
